Patent US20040058901A1, “Crystalline ethanolate solvate form of zafirluskast process for manufacture and pharmaceutical compositions thereof” (priority 2000, published 2004)
Several values for one entry are separate records, joined by “and”; a condition that tells them apart may be missing. Equal entries are not always repeated. Entries after “also recorded” stand apart in the source; their conditions may differ. Where two headings read alike, the source gives them in different places.

Key:
[1] = as disclosed in U.S. Pat. No. 5,993,859; cited from earlier work
[2] = cited from earlier work; for physical stability of the solid form: as disclosed in U.S. Pat. No. 5,993,859
[3] = Drying of zafirlukast ethanolate in an air oven (weight loss, physical properties); format: physicochemical; conditions: 105±1° C., 4 hours
Description: Preferably, the methods further comprise the step of drying the crystals of zafirlukast ethanolate. Effective drying methods include vacuum oven drying, air oven or simple vacuum desiccator drying. The ethanolate is stable at ambient temperature and will tolerate vacuum drying. When vacuum oven drying is used, one must exercise caution to avoid breaking the ethanolate. Preferred drying conditions for the ethanol solvate are about 30 to about 70° C. vacuum oven drying and are about 30 to about 105° C. at air oven drying.
5.0 g of zafirlukast Forms A, B or X, prepared according to U.S. Pat. No. 5,993,859 or zafirlukast, prepared according to J. Med. Chem., v. 33, 1781 (1990) were dissolved in hot acetone (50 mL). The solution was concentrated under reduced pressure to the volume of about 20 mL, heated to reflux and absolute ethanol (100 mL) was added to the solution. Acetone was distilled off from the stirred mixture through a 10 cm Vigreux column equipped with a distillation head until the temperature of vapor in the head of the column reached 78° C. The resulting mixture was kept overnight at the room temperature. The precipitated crystals were filtered off, washed on filter with ice cold absolute ethanol (2×5 mL) and dried under reduced pressure at 60° C. (water bath) to give crystalline zafirlukast ethanolate with mp 130-132° C.

[4] = Physical stability of zafirlukast ethanolate and its compositions; format: physicochemical
[5] = Hygroscopicity comparison in controlled humidity chambers, Karl Fisher water content; format: physicochemical; conditions: compared with zafirlukast Form A; 25° C./60% relative humidity and 40° C./75% relative humidity, two weeks
Description: Hygroscopicities of zafirlukast ethanolate and zafirlukast Form A were compared by maintaining samples in controlled humidity chambers at 25° C. under 60% relative humidity and at 40° C. under 75% relative humidity for a period of two weeks, followed by Karl Fisher analysis of water content.

[6] = high relative humidity and elevated temperatures

COc1cc(C(=O)NS(=O)(=O)c2ccccc2C)ccc1Cc1cn(C)c2ccc(NC(=O)OC3CCCC3)cc12 [Form A, cyclopentyl 3-[2-methoxy-4-[(o-tolylsulfonyl)carbamoyl]benzyl]-1-methylindole-5-carbamate]
bioavailability [1]: relatively good bioavailability
form conversion under high relative humidity and elevated temperatures [2, 6]: conversion of form A into form B occurs

COc1cc(C(=O)NS(=O)(=O)c2ccccc2C)ccc1Cc1cn(C)c2ccc(NC(=O)OC3CCCC3)cc12 [Form B, cyclopentyl 3-[2-methoxy-4-[(o-tolylsulfonyl)carbamoyl]benzyl]-1-methylindole-5-carbamate]
physical stability of the solid form [2]: physically unstable

CCO.COc1cc(C(=O)NS(=O)(=O)c2ccccc2C)ccc1Cc1cn(C)c2ccc(NC(=O)OC3CCCC3)cc12 [zafirlukast ethanolate]
change of physical properties on drying (mp, 1H NMR, infra-red spectra) [3]: without substantial change of physical properties
weight loss on drying [3]: < 1% and 0.86%
physical stability of the solid form [4]: relatively stable
stability at ambient temperature ([4]; ambient temperature): stable
stability under high relative humidity and elevated temperatures [4, 6]: stable
hygroscopicity [5]: less hygroscopic than other known forms of zafirlukast; also recorded: less hygroscopic than Form A of zafirlukast

COc1cc(C(=O)NS(=O)(=O)c2ccccc2C)ccc1Cc1cn(C)c2ccc(NC(=O)OC3CCCC3)cc12 [Form X, cyclopentyl 3-[2-methoxy-4-[(o-tolylsulfonyl)carbamoyl]benzyl]-1-methylindole-5-carbamate]
bioavailability [1]: relatively poor bioavailability
physical stability of the solid form [2]: physically stable
